Reference: the NIST ThermoML archive (doi:10.1021/acs.jced.6b00577)

Conditions: Liquid, Frequency=8 MHz, Pulse-echo method

CCCC [butane]
Conditions | speed of sound [m/s]
320 K, 1101.2 kPa | 790.66
320 K, 2101.9 kPa | 805.08
320 K, 2104.1 kPa | 805.16
320 K, 3102.5 kPa | 818.93
320 K, 3104.8 kPa | 819.01
320 K, 4103.2 kPa | 832.27
320 K, 4105.5 kPa | 832.35
320 K, 5103.8 kPa | 845.16
320 K, 5106.1 kPa | 845.24
320 K, 6106.8 kPa | 857.71
320 K, 7107.5 kPa | 869.8
320 K, 8108.2 kPa | 881.54
320 K, 9108.9 kPa | 892.95
320 K, 10109 kPa | 904.04
320 K, 10110 kPa | 904.07
320 K, 12611 kPa | 930.65
320 K, 15113 kPa | 955.74
320 K, 17615 kPa | 979.54
320 K, 20116 kPa | 1002.2
320 K, 25120 kPa | 1044.7
320 K, 30123 kPa | 1084
320 K, 35127 kPa | 1120.6
320 K, 40130 kPa | 1155
320 K, 45134 kPa | 1187.5
320 K, 50137 kPa | 1218.4
320 K, 50138 kPa | 1218.4
320 K, 60144 kPa | 1276.1
320 K, 70152 kPa | 1329.2
320 K, 80158 kPa | 1378.5
320 K, 90166 kPa | 1424.7
320 K, 100173 kPa | 1468.2
340 K, 1100.4 kPa | 678.12
340 K, 2101.1 kPa | 696.22
340 K, 2103.7 kPa | 696.27
340 K, 3101.7 kPa | 713.3
340 K, 3104.3 kPa | 713.36
340 K, 4102.4 kPa | 729.53
340 K, 4105 kPa | 729.59
340 K, 5102.9 kPa | 745.01
340 K, 5105.6 kPa | 745.07
340 K, 6106.2 kPa | 759.88
340 K, 7106.8 kPa | 774.1
340 K, 8107.5 kPa | 787.79
340 K, 9108.1 kPa | 801.01
340 K, 10106 kPa | 813.73
340 K, 10108 kPa | 813.77
340 K, 12610 kPa | 844.03
340 K, 15112 kPa | 872.22
340 K, 17614 kPa | 898.7
340 K, 20116 kPa | 923.7
340 K, 25119 kPa | 970.09
340 K, 30123 kPa | 1012.5
340 K, 35126 kPa | 1051.8
340 K, 40130 kPa | 1088.5
340 K, 45133 kPa | 1122.9
340 K, 50136 kPa | 1155.5
340 K, 60145 kPa | 1216
340 K, 70152 kPa | 1271.4
340 K, 80159 kPa | 1322.7
340 K, 90166 kPa | 1370.5
340 K, 100173 kPa | 1415.5
360 K, 2100.8 kPa | 582.29
360 K, 2103.9 kPa | 582.37
360 K, 3101.4 kPa | 604.48
360 K, 3104.6 kPa | 604.56
360 K, 4102 kPa | 625
360 K, 4102.1 kPa | 625
360 K, 4105.4 kPa | 625.09
360 K, 5102.6 kPa | 644.17
360 K, 5103 kPa | 644.18
360 K, 5106.1 kPa | 644.25
360 K, 6106.9 kPa | 662.28
360 K, 7107.6 kPa | 679.33
360 K, 8108.4 kPa | 695.54
360 K, 9109.1 kPa | 711.01
360 K, 10110 kPa | 725.83
360 K, 12612 kPa | 760.45
360 K, 15113 kPa | 792.21
360 K, 17615 kPa | 821.66
360 K, 20117 kPa | 849.23
360 K, 25120 kPa | 899.75
360 K, 30124 kPa | 945.47
360 K, 35128 kPa | 987.41
360 K, 40131 kPa | 1026.3
360 K, 45135 kPa | 1062.7
360 K, 50138 kPa | 1096.9
360 K, 60145 kPa | 1160.2
360 K, 70152 kPa | 1217.7
360 K, 80159 kPa | 1270.8
360 K, 90166 kPa | 1320.2
360 K, 100173 kPa | 1366.5
380 K, 2103.2 kPa | 456.13
380 K, 3104.2 kPa | 488.08
380 K, 4105 kPa | 515.93
380 K, 5105.8 kPa | 540.88
380 K, 6106.7 kPa | 563.62
380 K, 7107.5 kPa | 584.62
380 K, 8108.3 kPa | 604.2
380 K, 9109.1 kPa | 622.6
380 K, 10110 kPa | 639.98
380 K, 12611 kPa | 679.85
380 K, 15113 kPa | 715.71
380 K, 17614 kPa | 748.49
380 K, 20116 kPa | 778.8
380 K, 25120 kPa | 833.69
380 K, 30123 kPa | 882.73
380 K, 35127 kPa | 927.32
380 K, 40132 kPa | 968.4
380 K, 45135 kPa | 1006.6
380 K, 50139 kPa | 1042.4
380 K, 60146 kPa | 1108.3
380 K, 70153 kPa | 1167.9
380 K, 80160 kPa | 1222.7
380 K, 90167 kPa | 1273.5
380 K, 100174 kPa | 1321.1
400 K, 2704.8 kPa | 329.55
400 K, 3105.1 kPa | 351.68
400 K, 4105.8 kPa | 396.18
400 K, 5106.4 kPa | 431.84
400 K, 6107 kPa | 462.27
400 K, 7107.7 kPa | 489.16
400 K, 8108.4 kPa | 513.44
400 K, 9109.4 kPa | 535.71
400 K, 10110 kPa | 556.36
400 K, 12612 kPa | 602.56
400 K, 15114 kPa | 643.08
400 K, 17616 kPa | 679.47
400 K, 20118 kPa | 712.7
400 K, 25121 kPa | 772.06
400 K, 30125 kPa | 824.41
400 K, 35128 kPa | 871.59
400 K, 40132 kPa | 914.76
400 K, 45135 kPa | 954.73
400 K, 50138 kPa | 992.04
400 K, 60145 kPa | 1060.3
400 K, 70152 kPa | 1121.8
400 K, 80159 kPa | 1178.1
400 K, 90166 kPa | 1230.3
400 K, 100173 kPa | 1278.9
420 K, 4104.4 kPa | 244.51
420 K, 4455.2 kPa | 271.52
420 K, 4605 kPa | 281.85
420 K, 4955.6 kPa | 302.47
420 K, 5105.1 kPa | 310.48
420 K, 5456.1 kPa | 327.76
420 K, 5605.7 kPa | 334.63
420 K, 6105.8 kPa | 355.8
420 K, 6606.5 kPa | 374.83
420 K, 7106.5 kPa | 392.2
420 K, 8107.2 kPa | 423.27
420 K, 9108 kPa | 450.7
420 K, 10109 kPa | 475.45
420 K, 12611 kPa | 529.12
420 K, 15112 kPa | 574.77
420 K, 17615 kPa | 614.98
420 K, 20117 kPa | 651.2
420 K, 25120 kPa | 714.99
420 K, 30124 kPa | 770.53
420 K, 35127 kPa | 820.17
420 K, 40131 kPa | 865.3
420 K, 45134 kPa | 906.89
420 K, 50138 kPa | 945.57
420 K, 55142 kPa | 981.83
420 K, 60145 kPa | 1016
420 K, 70152 kPa | 1079.3
420 K, 80159 kPa | 1137
420 K, 90166 kPa | 1190.3
420 K, 100173 kPa | 1240
430 K, 5105.6 kPa | 236.47
430 K, 5355.3 kPa | 258.17
430 K, 5606 kPa | 273.03
430 K, 5855.6 kPa | 287.25
430 K, 6106.3 kPa | 300.07
430 K, 6356.3 kPa | 311.9
430 K, 6606.6 kPa | 323.01
430 K, 7106.8 kPa | 343.37
430 K, 7106.9 kPa | 343.37
430 K, 7607.2 kPa | 361.85
430 K, 8107.5 kPa | 378.83
430 K, 8607.8 kPa | 394.6
430 K, 9108.1 kPa | 409.36
430 K, 9608.5 kPa | 423.28
430 K, 10109 kPa | 436.47
430 K, 11110 kPa | 461
430 K, 12110 kPa | 483.55
430 K, 13111 kPa | 504.47
430 K, 14112 kPa | 524.06
430 K, 15113 kPa | 542.49
430 K, 17614 kPa | 584.59
430 K, 20116 kPa | 622.27
